Test results: patent US9492471B2, “Methods of treating a disease or disorder associated with Bruton'S Tyrosine Kinase” (Celgene Avilomics Research, Inc., priority 2013, dated 2016)
Like-named read-outs stand apart in the source and are kept apart here.

Assays:
Experiment in all cases: HotSpot kinase profiling
Format in all cases: biochemical
P38a/MAPK14 = target: T1, P38a/MAPK14 (Homo sapiens, UniProt Q16539)
T1 construct: purchased Reaction Biology Corp
Summary of the method: (§1)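 Percent inhibition, averaged when run more than once and referenced to a DMSO negative control, came from a radioactive filter-binding readout on P81 paper. Reactions of kinase with freshly made substrate and cofactors ran for 2 h at room temperature.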

JAK2 = target: T2, JAK2 (Homo sapiens, UniProt O60674)
T2 construct: purchased Reaction Biology Corp
Summary of the method: as §1

P70S6Kb/RPS6KB2 = target: T3, P70S6Kb/RPS6KB2 (Homo sapiens, UniProt Q9UBS0)
T3 construct: purchased Reaction Biology Corp
T3 sequence (Q9UBS0 whole entry): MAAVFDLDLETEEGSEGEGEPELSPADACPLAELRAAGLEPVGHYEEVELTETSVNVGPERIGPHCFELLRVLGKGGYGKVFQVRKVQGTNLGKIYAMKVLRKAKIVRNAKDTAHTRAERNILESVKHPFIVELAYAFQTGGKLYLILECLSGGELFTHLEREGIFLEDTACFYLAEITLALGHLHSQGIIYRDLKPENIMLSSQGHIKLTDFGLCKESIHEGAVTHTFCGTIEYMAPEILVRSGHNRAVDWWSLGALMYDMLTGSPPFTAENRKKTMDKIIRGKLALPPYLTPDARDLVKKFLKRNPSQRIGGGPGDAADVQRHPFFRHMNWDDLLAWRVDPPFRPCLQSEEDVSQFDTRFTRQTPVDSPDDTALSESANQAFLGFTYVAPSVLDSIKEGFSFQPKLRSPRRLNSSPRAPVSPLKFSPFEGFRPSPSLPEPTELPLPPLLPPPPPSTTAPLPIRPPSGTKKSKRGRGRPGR
Summary of the method: as §1

IGF1R = target: T4, IGF1R (Homo sapiens, UniProt P08069)
T4 construct: purchased Reaction Biology Corp
T4 sequence (P08069 31-1367): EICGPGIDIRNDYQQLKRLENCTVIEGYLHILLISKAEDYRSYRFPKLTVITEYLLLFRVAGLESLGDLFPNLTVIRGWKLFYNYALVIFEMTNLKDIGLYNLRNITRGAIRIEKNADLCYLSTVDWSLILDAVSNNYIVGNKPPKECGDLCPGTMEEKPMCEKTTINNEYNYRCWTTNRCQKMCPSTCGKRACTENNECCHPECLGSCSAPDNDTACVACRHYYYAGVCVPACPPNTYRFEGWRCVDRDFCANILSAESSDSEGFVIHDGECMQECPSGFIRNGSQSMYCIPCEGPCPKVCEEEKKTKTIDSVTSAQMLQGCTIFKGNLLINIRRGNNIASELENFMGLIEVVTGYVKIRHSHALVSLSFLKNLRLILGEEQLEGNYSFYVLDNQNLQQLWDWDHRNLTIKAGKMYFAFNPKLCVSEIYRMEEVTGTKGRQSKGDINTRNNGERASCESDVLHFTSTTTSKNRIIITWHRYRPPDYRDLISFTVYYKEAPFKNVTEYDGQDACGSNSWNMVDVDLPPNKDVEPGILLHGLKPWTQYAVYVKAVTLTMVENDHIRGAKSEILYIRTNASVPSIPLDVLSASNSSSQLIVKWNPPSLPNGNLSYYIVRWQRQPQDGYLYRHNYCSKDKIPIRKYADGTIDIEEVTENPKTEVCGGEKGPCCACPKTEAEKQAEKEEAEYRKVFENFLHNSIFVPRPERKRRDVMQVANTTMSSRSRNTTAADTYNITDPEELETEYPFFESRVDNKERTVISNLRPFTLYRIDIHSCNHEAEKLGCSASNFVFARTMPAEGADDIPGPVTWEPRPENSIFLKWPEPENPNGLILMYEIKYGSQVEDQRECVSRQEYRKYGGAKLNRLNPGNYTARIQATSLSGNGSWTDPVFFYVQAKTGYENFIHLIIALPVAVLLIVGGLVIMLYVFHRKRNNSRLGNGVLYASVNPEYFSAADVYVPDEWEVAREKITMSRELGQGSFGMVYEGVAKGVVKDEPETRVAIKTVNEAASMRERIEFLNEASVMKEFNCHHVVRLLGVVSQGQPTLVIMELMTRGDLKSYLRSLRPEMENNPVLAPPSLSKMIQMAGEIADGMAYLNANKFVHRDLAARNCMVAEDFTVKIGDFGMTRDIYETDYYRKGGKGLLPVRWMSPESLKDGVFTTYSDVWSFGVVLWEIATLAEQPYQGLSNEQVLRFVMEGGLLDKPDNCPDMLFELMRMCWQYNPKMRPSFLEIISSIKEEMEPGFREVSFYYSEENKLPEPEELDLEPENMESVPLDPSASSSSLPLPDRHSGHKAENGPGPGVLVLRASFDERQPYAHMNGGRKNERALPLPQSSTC
Summary of the method: as §1

CSK = target: T5, CSK (Homo sapiens, UniProt P41240)
T5 construct: purchased Reaction Biology Corp
T5 sequence (P41240 whole entry): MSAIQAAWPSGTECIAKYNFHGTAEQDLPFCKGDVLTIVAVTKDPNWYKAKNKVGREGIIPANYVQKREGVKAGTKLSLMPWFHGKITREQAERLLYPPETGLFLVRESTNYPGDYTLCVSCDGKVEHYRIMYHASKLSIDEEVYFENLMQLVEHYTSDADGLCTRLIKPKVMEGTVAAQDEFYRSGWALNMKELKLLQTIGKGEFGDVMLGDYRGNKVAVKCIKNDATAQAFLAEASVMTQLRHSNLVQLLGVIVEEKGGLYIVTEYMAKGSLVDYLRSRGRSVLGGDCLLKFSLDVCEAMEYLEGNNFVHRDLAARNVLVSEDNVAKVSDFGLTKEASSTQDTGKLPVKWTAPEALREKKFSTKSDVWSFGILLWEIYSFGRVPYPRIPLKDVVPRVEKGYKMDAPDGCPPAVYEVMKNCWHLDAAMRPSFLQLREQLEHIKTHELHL
Summary of the method: as §1

PKG1b = target: T6, PKG1b (Homo sapiens, UniProt Q13976)
T6 construct: purchased Reaction Biology Corp
T6 sequence (Q13976 1-686 isoform Q13976-2): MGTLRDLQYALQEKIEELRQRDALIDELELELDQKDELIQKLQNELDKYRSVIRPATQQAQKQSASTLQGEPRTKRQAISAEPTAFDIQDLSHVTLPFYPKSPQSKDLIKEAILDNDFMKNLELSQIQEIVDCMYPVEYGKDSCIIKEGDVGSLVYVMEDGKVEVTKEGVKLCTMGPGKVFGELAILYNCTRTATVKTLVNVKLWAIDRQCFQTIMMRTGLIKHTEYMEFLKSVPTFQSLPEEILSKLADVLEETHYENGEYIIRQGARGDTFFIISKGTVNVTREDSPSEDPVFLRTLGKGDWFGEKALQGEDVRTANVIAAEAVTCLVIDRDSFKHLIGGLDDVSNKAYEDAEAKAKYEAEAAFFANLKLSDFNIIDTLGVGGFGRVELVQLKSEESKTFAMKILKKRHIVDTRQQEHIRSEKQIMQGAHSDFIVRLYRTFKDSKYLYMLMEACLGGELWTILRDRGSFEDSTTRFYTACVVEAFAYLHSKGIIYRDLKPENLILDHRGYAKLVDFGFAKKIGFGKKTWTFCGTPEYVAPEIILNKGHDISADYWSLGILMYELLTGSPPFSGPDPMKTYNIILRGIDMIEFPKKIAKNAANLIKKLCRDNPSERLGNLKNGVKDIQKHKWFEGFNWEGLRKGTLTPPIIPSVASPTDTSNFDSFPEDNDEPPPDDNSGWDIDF
Summary of the method: as §1

CAMK1d = target: T7, CAMK1d (Homo sapiens, UniProt Q8IU85)
T7 construct: purchased Reaction Biology Corp
T7 sequence (Q8IU85 whole entry): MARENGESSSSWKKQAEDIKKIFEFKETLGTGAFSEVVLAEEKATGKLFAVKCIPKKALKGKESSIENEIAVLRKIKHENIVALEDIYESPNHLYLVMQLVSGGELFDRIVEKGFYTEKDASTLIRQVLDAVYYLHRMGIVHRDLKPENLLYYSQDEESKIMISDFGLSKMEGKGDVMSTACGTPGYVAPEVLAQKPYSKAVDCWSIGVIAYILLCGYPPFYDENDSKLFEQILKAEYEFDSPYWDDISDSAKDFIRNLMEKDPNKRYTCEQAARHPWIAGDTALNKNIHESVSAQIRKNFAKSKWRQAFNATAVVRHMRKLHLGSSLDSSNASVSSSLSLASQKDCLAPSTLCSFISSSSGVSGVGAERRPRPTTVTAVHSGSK
Summary of the method: as §1

FGR = target: T8, FGR (Homo sapiens, UniProt P09769)
T8 construct: purchased Reaction Biology Corp
Summary of the method: as §1

c-MET = target: T9, c-MET (Homo sapiens, UniProt P08581)
T9 construct: purchased Reaction Biology Corp
Summary of the method: as §1

STK25/YSK1 = target: T10, STK25/YSK1 (Homo sapiens, UniProt O00506)
T10 construct: purchased Reaction Biology Corp
T10 sequence (O00506 whole entry): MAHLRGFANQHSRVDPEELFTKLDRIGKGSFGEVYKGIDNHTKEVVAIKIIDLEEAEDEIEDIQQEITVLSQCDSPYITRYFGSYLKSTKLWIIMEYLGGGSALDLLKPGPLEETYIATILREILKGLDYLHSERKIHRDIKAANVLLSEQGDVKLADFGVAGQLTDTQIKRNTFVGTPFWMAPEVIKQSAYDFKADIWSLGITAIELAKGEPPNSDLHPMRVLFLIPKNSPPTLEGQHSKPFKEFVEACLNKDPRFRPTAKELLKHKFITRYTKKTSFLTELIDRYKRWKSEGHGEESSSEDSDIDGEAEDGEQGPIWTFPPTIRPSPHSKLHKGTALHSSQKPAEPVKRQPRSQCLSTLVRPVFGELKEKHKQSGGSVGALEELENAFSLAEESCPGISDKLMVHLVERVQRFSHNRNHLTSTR
Summary of the method: as §1

RSK3 = target: T11, RSK3 (Homo sapiens, UniProt Q15349)
T11 construct: purchased Reaction Biology Corp
T11 sequence (Q15349 whole entry): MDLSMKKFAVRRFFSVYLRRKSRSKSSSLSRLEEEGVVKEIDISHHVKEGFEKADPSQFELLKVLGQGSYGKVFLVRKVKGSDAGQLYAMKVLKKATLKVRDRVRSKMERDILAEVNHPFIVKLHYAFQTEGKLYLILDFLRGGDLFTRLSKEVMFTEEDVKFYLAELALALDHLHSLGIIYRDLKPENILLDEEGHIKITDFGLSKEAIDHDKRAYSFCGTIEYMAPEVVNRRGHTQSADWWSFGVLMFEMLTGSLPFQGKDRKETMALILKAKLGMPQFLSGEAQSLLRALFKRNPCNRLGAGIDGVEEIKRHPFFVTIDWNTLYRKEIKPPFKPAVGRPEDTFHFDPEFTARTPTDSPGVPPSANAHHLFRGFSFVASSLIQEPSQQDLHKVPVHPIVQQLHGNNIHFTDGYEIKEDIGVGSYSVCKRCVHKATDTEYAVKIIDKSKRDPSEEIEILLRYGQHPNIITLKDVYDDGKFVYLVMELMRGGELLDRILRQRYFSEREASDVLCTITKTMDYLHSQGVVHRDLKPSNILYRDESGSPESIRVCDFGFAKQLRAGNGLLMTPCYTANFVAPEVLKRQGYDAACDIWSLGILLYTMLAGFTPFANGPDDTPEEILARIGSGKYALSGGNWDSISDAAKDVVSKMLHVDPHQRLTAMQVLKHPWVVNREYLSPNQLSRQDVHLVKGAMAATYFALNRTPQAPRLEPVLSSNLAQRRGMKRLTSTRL
Summary of the method: as §1

ALK1/ACVRL1 = target: T12, ALK1/ACVRL1 (Homo sapiens, UniProt P37023)
T12 construct: purchased Reaction Biology Corp
T12 sequence (P37023 22-503): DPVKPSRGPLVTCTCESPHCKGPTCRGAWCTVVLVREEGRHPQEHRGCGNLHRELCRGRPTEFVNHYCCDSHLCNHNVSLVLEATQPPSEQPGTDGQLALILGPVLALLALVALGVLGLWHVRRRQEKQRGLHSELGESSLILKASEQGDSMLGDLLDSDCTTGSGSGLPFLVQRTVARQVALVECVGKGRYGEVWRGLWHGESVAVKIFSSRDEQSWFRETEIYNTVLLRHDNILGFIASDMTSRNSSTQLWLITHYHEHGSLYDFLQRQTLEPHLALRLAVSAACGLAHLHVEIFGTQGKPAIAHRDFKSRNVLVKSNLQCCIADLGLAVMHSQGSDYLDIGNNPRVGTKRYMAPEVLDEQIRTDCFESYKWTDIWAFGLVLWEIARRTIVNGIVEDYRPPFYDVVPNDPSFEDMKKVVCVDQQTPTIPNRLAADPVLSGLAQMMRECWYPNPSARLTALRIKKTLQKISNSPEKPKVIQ
Summary of the method: as §1

[1] = read-out: % Enzyme Activity (relative to DMSO controls) Run 1
[2] = read-out: % Enzyme Activity (relative to DMSO controls) Run 2

T1 sequence (Q16539 whole entry): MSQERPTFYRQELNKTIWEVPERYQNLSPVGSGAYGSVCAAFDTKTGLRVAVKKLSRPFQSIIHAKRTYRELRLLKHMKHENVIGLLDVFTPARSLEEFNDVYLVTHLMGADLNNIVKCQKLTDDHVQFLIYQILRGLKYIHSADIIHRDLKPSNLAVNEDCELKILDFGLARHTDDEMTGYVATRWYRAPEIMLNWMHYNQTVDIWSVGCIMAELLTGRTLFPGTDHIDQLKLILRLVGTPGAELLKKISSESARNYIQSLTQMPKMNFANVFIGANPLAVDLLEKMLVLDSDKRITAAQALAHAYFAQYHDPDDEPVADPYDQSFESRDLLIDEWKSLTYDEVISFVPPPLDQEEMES

## C=CC(=O)Nc1cccc(Nc2nc(Nc3ccc(OCCOC)c(F)c3)ncc2F)c1 [Compound 2]
P38a/MAPK14
  inhibition at 3 µM: -6.68%
P38a/MAPK14; [1]
  remaining activity at 3 µM: 106%
P38a/MAPK14; [2]
  remaining activity at 3 µM: 108%
JAK2
  inhibition at 3 µM: -11.6%
JAK2; [1]
  remaining activity at 3 µM: 109%
JAK2; [2]
  remaining activity at 3 µM: 115%
P70S6Kb/RPS6KB2
  inhibition at 3 µM: 4.15%
P70S6Kb/RPS6KB2; [1]
  remaining activity at 3 µM: 95.6%
P70S6Kb/RPS6KB2; [2]
  remaining activity at 3 µM: 96.1%
IGF1R
  inhibition at 3 µM: 15.6%
IGF1R; [1]
  remaining activity at 3 µM: 82.8%
IGF1R; [2]
  remaining activity at 3 µM: 86%
CSK
  inhibition at 3 µM: 18.2%
CSK; [1]
  remaining activity at 3 µM: 81.7%
CSK; [2]
  remaining activity at 3 µM: 81.8%
PKG1b
  inhibition at 3 µM: 13.8%
PKG1b; [1]
  remaining activity at 3 µM: 85.4%
PKG1b; [2]
  remaining activity at 3 µM: 87.1%
CAMK1d
  inhibition at 3 µM: -3.36%
CAMK1d; [1]
  remaining activity at 3 µM: 104%
CAMK1d; [2]
  remaining activity at 3 µM: 103%
FGR
  inhibition at 3 µM: 59.9%
FGR; [1]
  remaining activity at 3 µM: 39.7%
FGR; [2]
  remaining activity at 3 µM: 40.5%
c-MET
  inhibition at 3 µM: -1.49%
c-MET; [1]
  remaining activity at 3 µM: 103%
c-MET; [2]
  remaining activity at 3 µM: 100%
STK25/YSK1
  inhibition at 3 µM: 5.72%
STK25/YSK1; [1]
  remaining activity at 3 µM: 94.5%
STK25/YSK1; [2]
  remaining activity at 3 µM: 94.1%
RSK3
  inhibition at 3 µM: 14.5%
RSK3; [1]
  remaining activity at 3 µM: 85.8%
RSK3; [2]
  remaining activity at 3 µM: 85.2%
ALK1/ACVRL1
  inhibition at 3 µM: -24.4%
ALK1/ACVRL1; [1]
  remaining activity at 3 µM: 125%
ALK1/ACVRL1; [2]
  remaining activity at 3 µM: 124%
